Experimental data reported in PubChem BioAssay AID1057 (University of Pittsburgh Molecular Library Screening Center, 2008).
Activity calls are given as the source filed them. The rule behind the calls is not given here.

Target: Serine/threonine-protein kinase PLK1 (Homo sapiens) (UniProt P53350)
Experiment: PLK1 polo-box domain peptide-binding inhibitors, SAR follow-up, biochemical, fluorescence polarization, synthesized analogs, concentration response (AID 1057)
Details: Plk1 PBD fluorescence polarization peptide binding

Chain of Serine/threonine-protein kinase PLK1 (Homo sapiens) (P53350 whole entry, looked up, the tested form may be a part): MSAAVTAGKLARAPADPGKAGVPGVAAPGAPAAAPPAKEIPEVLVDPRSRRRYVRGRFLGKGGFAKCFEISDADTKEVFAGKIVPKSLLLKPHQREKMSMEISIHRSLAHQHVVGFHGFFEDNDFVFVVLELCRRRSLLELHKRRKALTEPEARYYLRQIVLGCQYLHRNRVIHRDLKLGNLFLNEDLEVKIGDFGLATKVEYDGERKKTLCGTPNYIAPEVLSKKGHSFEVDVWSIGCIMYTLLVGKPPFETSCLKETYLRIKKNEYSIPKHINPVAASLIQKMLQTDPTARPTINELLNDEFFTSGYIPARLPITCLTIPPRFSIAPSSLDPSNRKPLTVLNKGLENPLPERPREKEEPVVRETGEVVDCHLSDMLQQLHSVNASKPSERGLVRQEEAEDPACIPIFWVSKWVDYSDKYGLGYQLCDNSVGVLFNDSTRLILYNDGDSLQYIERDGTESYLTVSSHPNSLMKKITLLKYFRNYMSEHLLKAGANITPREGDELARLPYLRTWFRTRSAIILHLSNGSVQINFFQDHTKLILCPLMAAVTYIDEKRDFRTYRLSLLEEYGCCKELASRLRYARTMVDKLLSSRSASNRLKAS

SMILES | IC50
CCOC(=O)CCCCCNC(=O)c1c(O)[nH]c(=O)[nH]c1=O | > 50 µM (inactive)
C/C(=N\NC(=O)c1ccncc1)c1c(O)[nH]c(=O)[nH]c1=O | > 50 µM (inactive)
Cc1cccc(N/N=C/c2c(O)[nH]c(=S)[nH]c2=O)c1 | > 50 µM (inactive)
